Measured values: PMC10630888, “Nuclear ERK1/2 signaling potentiation enhances neuroprotection and cognition via Importinα1/KPNA2” (EMBO Molecular Medicine, 2023)
“And” between values parts separate entries of the source, which are not always exact repeats. Equal values may be shown once.

Assays:
[1] = system: SC-CA1 synapses, CA1 pyramidal neurons; assay: Whole-cell patch clamp, EPSCs at SC-CA1 synapses in hippocampal slices; format: cell-based, rat; details: peptide 50 μM in intracellular solution, 30–35 min, mean, RB5 n = 12 cells, Scr n = 8 cells, 4 animals
[2] = system: mutant huntingtin (mHtt); assay: Mutant huntingtin inclusions in striatum of zQ175 females after RB5; format: in vivo, mouse; details: RB5 for 9 days
Procedure: Immunofluorescence was performed as described in Papale et al ([2016]). Briefly, 1 h after blocking in 5% normal goat serum, slices were incubated overnight at 4°C with the following primary antibodies: anti‐phospho (Ser10)‐acetylated (Lys14) histone H3 (1:1,000, Millipore), anti‐phospho‐S6 ribosomal protein (Ser235/236) (1:200, Cell Signaling Technology) anti‐phospho‐S6 ribosomal protein (Ser240/244) (1:200, Cell Signaling), cleaved caspase‐3 (1:200, Cell Signaling Technology), anti‐mutant Huntingtin (1:100, Developmental Studies Hybridoma Bank, University of Iowa, #MW8), and NeuN (1:1,000, Millipore). […]
In ex‐vivo and in‐vivo immunofluorescence experiments, the number of p‐S6 or p‐AcH3 immunoreactive neurons among NeuN‐positive neurons was counted in 2–3 consecutive striatal sections per mouse in four fields per section. Caspase 3‐positive cells were quantified among NeuN‐positive neurons in each slide and expressed as percentage (ratio between caspase‐3‐positive cells and total NeuN‐positive neurons) for each field acquired through the slide. The number of cells showing mutant Huntingtin inclusions were expressed as a percentage of mutant Huntingtin‐positive cells among DAPI‐positive cells. […]

[3] = system: p-ERK1/2 in CTIP2+ neurons; assay: p-ERK1/2 in CTIP2+ iPSC-derived HD MSNs; format: cell-based, human; details: for p-ERK1/2 in CTIP2+ neurons (Fig 5 panel f): individual replicates
Procedure: The human induced pluripotent stem cell line CS09iHD109‐n1 (herein referred to as Q109N1) was originally generated from a human fibroblast line ND39258 (RRID:CVCL_ZC78) with an expanded HTT allele initially containing 109 pure CAG trinucleotides, and the isogenic control lines used were derived by CRISPR gene‐edit to reduce the CAG repeat length to 20 repeats (Mattis et al, [2015]). IPSCS were cultured on hESC‐qualified Matrigel (Corning) in E8‐Flex medium (Thermo Fisher) and passaged with RelesR (Stem Cell Technologies) according to the manufacturer's instructions. For neural differentiation iPSCS were grown to 70% confluency and then treated with 10 μM Y‐27632 (Tocris) for 1 h before harvesting by dissociation to a single cell suspension using accutase (Sigma). IPSCs were replated onto fresh Matrigel‐coated plates at a split ratio of 1:2, in E8‐Flex medium containing 10 μM Y‐27632. After overnight culture, IPSCs at 80–90% confluency were washed with PBS pH 7.4 (Gibco) and then switched to neural induction medium (Advanced DMEM/F12 (1:1) supplemented with 2 mM GlutamaxTM (Gibco), 2% Neurobrew without vitamin A (Miltenyi), 10 μM SB431542, 1 μM LDN 193189 (both Stem Cell Technologies), and 1.5 μM IWR1 (Tocris)). Medium was changed daily until day 8, when cells were passaged 1:2 by cell dissociation with Accutase for 5 min at 37°C and replated on Matrigel® coated plates in LIA medium containing (Advanced DMEM/F12 (1:1) supplemented with 2 mM GlutamaxTM, 2% Neurobrew without vitamin A, 0.2 μM LDN 193189, 1.5 μM IWR1, and 20 ng/ml Activin A (Peprotech)). At day 16, cells were plated for neuronal differentiation according to (Telezhkin et al, [2016]). […]
Images were acquired using a confocal microscope (Zeiss LSM710) under a 20× objective and analyzed with ImageJ software.

Row | Substance | Average EPSC amplitude over last 5 min of recording, normalized to first minute [1] | Average EPSC amplitude over last 5 min of recording, normalized to first minute ([1]; listed as Scr) | mHtt aggregation in striatum [2] | p-ERK1/2 in CTIP2+ neurons (Fig 5 panel f) ([3]; CTR iPSC-derived MSNs) | p-ERK1/2 in CTIP2+ neurons ([3]; HD and isogenic control iPSC-derived MSNs, 50 μM, 30 min) | p-ERK1/2 in CTIP2+ neurons (Fig 5 panel f) ([3]; HD iPSC-derived MSNs)
1 | SCR: ineffective Scramble version of RB5 containing a TAT sequence (GRKKRRQRRRPPRVGPGVPEGVGVAVFGVKEPGQTGDVGPVGE) [reference compound] | had no effect | 0.9389 |  |  |  | 
2 | GRKKRRQRRRPPQGGGGGEPRRTEGVGPGVPGEVEMVKGQPFDV [RB5, six D-amino acids, acetylated N-terminus] |  |  | insufficient to attenuate the mHtt aggregation | 40.5874 and 43.5065 and 59.0476 and 55.7538 and 63.8384 and 58.6194 | induced ERK activation | 50.2062 and 59.3301 and 53.5036 and 55.8187 and 47.3002 and 65.1771
